Assay results published in patent publication US20100143405A1, “Immunotherapy of virus infection” (priority 2004, published 2010).

Legend:
[1] = system: CTL epitope-specific CD8^+ T cells; parameters: species or system BALB/c mice; settings: mouse, in vivo
PBMC = PBMC proliferation induced by Th epitope P25; type: cell-based, human
Source text: Preferably, the Th cell epitope is P25, KLIPNASLIENCTKAEL (SEQ ID No:8), from the F protein of morbillivirus (Ghosh et al, 2001). This epitope is promiscuous in all outbred dogs that have been studied by the inventors so far and also in all strains of mice and cattle examined (unpublished results). This epitope is also able to induce PBMC proliferation in at least 50% of blood samples extracted from human volunteers. The F protein is conserved across most morbilliviruses and in the case of P25 is conserved in canine distemper virus, rhinderpest and measles viruses.

Substance	antigen-specific CD8+ T cell responses compared with non-lipidated peptide [1]	antigen-specific CD8+ T cells in lung and spleen compared with non-lipidated peptide [1]	blood samples from human volunteers in which PBMC proliferation is induced (PBMC)
GALNNRFQIKGVELKS-K(Pam2CSS)-TYQRTRALV [lipopeptide]	not enhanced	more antigen-specific CD8^+ T cells	–
KLIPNASLIENCTKAEL (Morbillivirus) [P25]	–	–	at least 50%
